Assay results published in ChEMBL document CHEMBL5634174, “Biological evaluation of sulfonate and sulfate analogues of lithocholic acid: A bioisosterism-guided approach towards the discovery of potential sialyltransferase inhibitors for antimetastatic study” (Bioorg Med Chem Lett, 2024).
The source made the active and inactive calls. The calls are words filed in the database; no cut-off is given here.

What was measured:
[1] = target: T1, Beta-galactoside alpha-2,6-sialyltransferase 1 (Homo sapiens) (UniProt P15907); assay: Inhibition of recombinant human N-terminal His tagged ST6GAL1 (44 to 406 residues) at 50 uM by UPLC-based assay relative to control
T1 sequence (whole entry): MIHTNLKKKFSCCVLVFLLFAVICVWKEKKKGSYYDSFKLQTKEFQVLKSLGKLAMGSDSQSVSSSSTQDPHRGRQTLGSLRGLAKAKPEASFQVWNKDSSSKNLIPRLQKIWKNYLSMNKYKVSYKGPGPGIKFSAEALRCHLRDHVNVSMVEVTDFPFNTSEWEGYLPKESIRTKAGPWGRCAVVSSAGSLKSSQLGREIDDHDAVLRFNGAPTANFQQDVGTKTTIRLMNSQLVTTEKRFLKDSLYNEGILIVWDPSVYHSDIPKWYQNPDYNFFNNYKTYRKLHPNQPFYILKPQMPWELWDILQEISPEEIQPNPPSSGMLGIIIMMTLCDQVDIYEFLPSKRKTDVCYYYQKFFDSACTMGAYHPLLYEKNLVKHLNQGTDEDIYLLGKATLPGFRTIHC

[2] = target: T2, Beta-galactoside alpha-2,6-sialyltransferase 1 (Homo sapiens, UniProt P15907); assay: Inhibition of recombinant human N-terminal His tagged ST6GAL1 (44 to 406 residues) by UPLC-based assay
T2 sequence (P15907 whole entry): T1 sequence (whole entry)

[3] = target: T3, Sialyltransferase ST3Gal-I (Rattus norvegicus, UniProt Q6H8N0); assay: Inhibition of rat ST3GAL1 by UPLC-based assay
T3 sequence (Q6H8N0 whole entry): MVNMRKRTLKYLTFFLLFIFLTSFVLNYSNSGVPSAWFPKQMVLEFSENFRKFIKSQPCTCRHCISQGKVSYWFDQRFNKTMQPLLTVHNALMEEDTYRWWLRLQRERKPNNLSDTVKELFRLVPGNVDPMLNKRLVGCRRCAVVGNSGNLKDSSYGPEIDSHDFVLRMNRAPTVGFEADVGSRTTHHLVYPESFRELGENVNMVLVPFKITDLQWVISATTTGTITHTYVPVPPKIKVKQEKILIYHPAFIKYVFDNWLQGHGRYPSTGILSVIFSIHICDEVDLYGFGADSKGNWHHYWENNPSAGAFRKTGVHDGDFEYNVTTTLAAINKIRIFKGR

[4] = Selectivity index, ratio of IC50 for inhibition of rat ST3GAL1 to IC50 for inhibition of human ST6GAL1
MDA-MB-231 [5] = assay: Antimigratory activity against human MDA-MB-231 cells at 60 uM incubated for 16 hrs by transwell migration assay; type: functional, cell-based
MDA-MB-231 [6] = assay: Inhibition of cell invasion in human MDA-MB-231 cells at 60 uM; type: functional, cell-based
MDA-MB-231 [7] = assay: Inhibition of cell invasion in human MDA-MB-231 cells assessed as reduction in cell adhesion to collagen IV at 60 uM incubated for 48 hrs; type: functional, cell-based
MDA-MB-231 [8] = assay: Inhibition of cell invasion in human MDA-MB-231 cells assessed as reduction in cell adhesion to fibronectin at 60 uM incubated for 24 hrs; type: functional, cell-based
MDA-MB-231 [9] = assay: Inhibition of cell invasion in human MDA-MB-231 cells assessed as reduction in cell adhesion at 60 uM after 48 hrs; type: functional, cell-based
[10] = target: Integrin alpha-V (Homo sapiens) (UniProt P06756); assay: Inhibition of integrin alpha-v in human MDA-MB-231 cells assessed as decrease in sialylation level incubated for 48 hrs by Western blot analysis; type: cell-based; details: dose 20-80 µM
[11] = target: Integrin alpha-5 (Homo sapiens) (UniProt P08648); assay: Inhibition of integrin alpha-5 in human MDA-MB-231 cells assessed as decrease in sialylation level incubated for 48 hrs by Western blot analysis; type: cell-based; details: dose 20-80 µM
[12] = target: Integrin beta-1 (Homo sapiens) (UniProt P05556); assay: Inhibition of integrin beta-1 in human MDA-MB-231 cells assessed as decrease in sialylation level incubated for 48 hrs by Western blot analysis; type: cell-based; details: dose 20-80 µM
[13] = target: T4, Integrin beta-3 (Homo sapiens) (UniProt P05106); assay: Inhibition of integrin beta-3 in human MDA-MB-231 cells assessed as decrease in sialylation level incubated for 48 hrs by Western blot analysis; type: cell-based; details: dose 20-80 µM
T4 sequence (whole entry): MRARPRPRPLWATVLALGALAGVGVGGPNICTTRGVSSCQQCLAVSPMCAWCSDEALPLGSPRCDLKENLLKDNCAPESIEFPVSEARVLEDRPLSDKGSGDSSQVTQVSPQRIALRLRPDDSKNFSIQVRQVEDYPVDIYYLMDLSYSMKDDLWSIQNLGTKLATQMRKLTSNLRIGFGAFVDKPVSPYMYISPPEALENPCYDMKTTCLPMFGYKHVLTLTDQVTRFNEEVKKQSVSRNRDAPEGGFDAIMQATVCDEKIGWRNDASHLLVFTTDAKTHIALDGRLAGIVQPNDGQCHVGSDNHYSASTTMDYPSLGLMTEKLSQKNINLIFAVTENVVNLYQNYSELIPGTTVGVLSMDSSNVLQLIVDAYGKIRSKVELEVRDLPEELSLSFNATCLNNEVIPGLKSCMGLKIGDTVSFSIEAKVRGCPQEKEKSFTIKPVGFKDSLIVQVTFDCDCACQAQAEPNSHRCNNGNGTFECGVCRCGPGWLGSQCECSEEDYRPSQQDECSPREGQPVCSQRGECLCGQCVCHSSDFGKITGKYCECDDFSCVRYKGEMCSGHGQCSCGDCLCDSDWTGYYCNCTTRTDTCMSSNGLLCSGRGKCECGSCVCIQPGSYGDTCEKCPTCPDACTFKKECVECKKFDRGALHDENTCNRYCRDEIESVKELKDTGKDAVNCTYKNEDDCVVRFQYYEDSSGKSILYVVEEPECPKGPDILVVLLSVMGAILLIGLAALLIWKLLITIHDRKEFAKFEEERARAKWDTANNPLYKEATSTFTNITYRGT

[14] = target: Integrin beta-4 (Homo sapiens) (UniProt P16144); assay: Inhibition of integrin beta-4 in human MDA-MB-231 cells assessed as decrease in sialylation level incubated for 48 hrs by Western blot analysis; type: cell-based; details: dose 20-80 µM
[15] = target: Focal adhesion kinase 1 (Homo sapiens) (UniProt Q05397); assay: Inhibition of FAK phosphorylation at Y397 residue in human MDA-MB-231 cells at 80 uM incubated for 2 hrs by Western blot analysis; type: cell-based
[16] = target: Focal adhesion kinase 1 (Homo sapiens) (UniProt Q05397); assay: Inhibition of FAK phosphorylation at Y576/577 residue in human MDA-MB-231 cells at 80 uM incubated for 2 hrs by Western blot analysis; type: cell-based
Paxillin (Homo sapiens) = Paxillin (Homo sapiens) (UniProt P49023); assay: Inhibition of paxillin phosphorylation at Y118 residue in human MDA-MB-231 cells at 80 uM incubated for 2 hrs by Western blot analysis; type: cell-based
[17] = target: Focal adhesion kinase 1 (Homo sapiens) (UniProt Q05397); assay: Inhibition of FAK phosphorylation at Y397 residue in human MDA-MB-231 cells incubated for 2 hrs by Western blot analysis; type: cell-based; details: dose 20-80 µM
MDA-MB-231 [18] = assay: Effect on total FAK expression level in human MDA-MB-231 cells at 20 to 80 uM incubated for 2 hrs by Western blot analysis; type: functional, cell-based; details: dose 20-80 µM
MDA-MB-231 [19] = assay: Effect on total paxillin expression level in human MDA-MB-231 cells at 20 to 80 uM incubated for 2 hrs by Western blot analysis; type: functional, cell-based; details: dose 20-80 µM

Sequence of Focal adhesion kinase 1 (Homo sapiens) (Q05397 2-1052 limits assumed): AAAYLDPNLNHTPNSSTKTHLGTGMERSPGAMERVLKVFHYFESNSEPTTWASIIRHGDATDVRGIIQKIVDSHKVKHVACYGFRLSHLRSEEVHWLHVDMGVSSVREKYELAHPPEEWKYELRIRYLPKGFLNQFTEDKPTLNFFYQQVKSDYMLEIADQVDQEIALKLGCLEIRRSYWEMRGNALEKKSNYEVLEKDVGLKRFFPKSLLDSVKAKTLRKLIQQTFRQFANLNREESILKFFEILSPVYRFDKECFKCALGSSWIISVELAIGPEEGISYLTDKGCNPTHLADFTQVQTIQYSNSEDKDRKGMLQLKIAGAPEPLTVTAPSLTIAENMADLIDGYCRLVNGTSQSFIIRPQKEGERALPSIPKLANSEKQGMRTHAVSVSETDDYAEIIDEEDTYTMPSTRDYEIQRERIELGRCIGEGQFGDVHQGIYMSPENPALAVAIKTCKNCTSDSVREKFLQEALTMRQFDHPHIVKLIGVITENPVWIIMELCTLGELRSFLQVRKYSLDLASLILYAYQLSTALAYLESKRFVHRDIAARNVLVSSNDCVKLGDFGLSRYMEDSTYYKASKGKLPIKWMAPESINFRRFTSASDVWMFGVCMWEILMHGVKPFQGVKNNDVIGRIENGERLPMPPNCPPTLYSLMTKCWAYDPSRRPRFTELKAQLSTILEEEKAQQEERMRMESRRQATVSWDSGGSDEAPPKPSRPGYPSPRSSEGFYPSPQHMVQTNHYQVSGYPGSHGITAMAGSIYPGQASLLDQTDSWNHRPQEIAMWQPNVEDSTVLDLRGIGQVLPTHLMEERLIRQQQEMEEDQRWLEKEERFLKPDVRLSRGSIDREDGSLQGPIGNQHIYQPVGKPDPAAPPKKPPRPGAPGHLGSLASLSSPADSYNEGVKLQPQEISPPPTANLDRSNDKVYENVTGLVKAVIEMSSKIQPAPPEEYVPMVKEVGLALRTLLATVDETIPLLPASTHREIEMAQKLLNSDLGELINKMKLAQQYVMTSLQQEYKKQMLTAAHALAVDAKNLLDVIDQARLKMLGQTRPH
Sequence of Integrin alpha-5 (Homo sapiens) (P08648 42-894 limits assumed): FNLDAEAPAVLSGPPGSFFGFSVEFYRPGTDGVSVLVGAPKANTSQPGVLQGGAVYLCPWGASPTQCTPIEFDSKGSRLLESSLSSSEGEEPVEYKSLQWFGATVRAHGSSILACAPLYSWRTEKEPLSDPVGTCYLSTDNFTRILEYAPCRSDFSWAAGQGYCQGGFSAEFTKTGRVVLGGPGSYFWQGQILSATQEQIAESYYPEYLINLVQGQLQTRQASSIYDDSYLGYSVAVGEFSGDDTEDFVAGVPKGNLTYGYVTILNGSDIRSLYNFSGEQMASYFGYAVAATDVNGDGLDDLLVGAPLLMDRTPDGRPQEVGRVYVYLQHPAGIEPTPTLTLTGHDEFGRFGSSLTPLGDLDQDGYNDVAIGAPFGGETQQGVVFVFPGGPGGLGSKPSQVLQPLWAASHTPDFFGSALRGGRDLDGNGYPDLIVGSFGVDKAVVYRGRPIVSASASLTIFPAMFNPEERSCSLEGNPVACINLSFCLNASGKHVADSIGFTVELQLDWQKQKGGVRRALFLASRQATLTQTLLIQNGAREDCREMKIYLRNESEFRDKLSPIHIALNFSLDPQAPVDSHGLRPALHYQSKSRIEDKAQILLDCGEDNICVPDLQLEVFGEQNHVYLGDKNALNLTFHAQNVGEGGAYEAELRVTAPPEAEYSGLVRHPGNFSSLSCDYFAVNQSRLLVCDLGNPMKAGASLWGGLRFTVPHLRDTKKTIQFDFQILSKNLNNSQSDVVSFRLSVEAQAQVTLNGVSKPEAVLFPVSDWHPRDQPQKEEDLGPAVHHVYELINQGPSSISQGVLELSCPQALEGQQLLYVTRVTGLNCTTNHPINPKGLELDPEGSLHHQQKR
Sequence of Integrin alpha-5 (Homo sapiens) (P08648 895-1049 limits assumed): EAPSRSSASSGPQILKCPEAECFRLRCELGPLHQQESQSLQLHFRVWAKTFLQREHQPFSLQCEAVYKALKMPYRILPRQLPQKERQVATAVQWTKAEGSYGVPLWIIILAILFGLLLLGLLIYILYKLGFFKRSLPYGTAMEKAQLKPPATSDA
Sequence of Integrin alpha-V (Homo sapiens) (P06756 31-889 limits assumed): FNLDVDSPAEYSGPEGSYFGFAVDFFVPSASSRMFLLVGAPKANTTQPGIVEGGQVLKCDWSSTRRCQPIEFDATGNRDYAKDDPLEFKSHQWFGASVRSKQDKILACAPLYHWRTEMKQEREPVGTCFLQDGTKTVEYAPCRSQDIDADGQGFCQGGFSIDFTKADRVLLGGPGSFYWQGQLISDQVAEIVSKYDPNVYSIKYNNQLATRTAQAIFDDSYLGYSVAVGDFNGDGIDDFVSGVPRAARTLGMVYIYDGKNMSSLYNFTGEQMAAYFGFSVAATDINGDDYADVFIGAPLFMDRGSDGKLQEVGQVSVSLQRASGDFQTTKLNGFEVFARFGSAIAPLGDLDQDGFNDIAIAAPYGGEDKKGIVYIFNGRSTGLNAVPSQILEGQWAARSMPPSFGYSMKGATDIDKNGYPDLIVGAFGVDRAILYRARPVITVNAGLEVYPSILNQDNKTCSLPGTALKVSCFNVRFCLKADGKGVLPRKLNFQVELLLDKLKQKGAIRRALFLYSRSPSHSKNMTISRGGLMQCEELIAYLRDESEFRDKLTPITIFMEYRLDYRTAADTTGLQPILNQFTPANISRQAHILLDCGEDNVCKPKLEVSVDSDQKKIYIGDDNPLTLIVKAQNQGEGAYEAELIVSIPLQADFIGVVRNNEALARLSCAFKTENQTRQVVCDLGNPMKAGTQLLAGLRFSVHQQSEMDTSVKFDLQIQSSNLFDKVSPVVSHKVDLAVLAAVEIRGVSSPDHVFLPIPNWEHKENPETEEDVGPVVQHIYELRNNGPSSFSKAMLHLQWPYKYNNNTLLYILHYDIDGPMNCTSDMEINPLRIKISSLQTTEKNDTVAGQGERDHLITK
Sequence of Integrin alpha-V (Homo sapiens) (P06756 891-1048 limits assumed): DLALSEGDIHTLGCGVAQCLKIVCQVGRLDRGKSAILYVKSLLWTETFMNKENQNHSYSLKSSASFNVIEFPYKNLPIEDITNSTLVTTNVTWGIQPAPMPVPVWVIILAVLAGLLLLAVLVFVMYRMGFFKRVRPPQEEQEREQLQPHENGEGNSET
Sequence of Paxillin (Homo sapiens) (P49023 whole entry): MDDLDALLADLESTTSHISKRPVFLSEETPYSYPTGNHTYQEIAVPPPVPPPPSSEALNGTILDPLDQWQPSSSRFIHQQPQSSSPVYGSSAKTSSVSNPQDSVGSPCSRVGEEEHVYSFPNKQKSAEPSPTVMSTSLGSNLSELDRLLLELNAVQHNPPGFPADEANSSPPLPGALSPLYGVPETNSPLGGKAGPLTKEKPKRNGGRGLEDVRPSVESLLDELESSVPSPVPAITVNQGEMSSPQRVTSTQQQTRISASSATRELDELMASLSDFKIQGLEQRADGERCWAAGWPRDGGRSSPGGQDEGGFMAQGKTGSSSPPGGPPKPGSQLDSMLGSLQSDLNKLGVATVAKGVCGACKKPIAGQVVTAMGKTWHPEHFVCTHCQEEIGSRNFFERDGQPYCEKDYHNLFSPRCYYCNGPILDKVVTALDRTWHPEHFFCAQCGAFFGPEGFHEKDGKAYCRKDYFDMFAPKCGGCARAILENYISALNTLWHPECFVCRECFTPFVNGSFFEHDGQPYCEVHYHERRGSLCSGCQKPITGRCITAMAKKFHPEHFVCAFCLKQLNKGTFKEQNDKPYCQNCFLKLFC
Sequence of Integrin beta-1 (Homo sapiens) (P05556 whole entry): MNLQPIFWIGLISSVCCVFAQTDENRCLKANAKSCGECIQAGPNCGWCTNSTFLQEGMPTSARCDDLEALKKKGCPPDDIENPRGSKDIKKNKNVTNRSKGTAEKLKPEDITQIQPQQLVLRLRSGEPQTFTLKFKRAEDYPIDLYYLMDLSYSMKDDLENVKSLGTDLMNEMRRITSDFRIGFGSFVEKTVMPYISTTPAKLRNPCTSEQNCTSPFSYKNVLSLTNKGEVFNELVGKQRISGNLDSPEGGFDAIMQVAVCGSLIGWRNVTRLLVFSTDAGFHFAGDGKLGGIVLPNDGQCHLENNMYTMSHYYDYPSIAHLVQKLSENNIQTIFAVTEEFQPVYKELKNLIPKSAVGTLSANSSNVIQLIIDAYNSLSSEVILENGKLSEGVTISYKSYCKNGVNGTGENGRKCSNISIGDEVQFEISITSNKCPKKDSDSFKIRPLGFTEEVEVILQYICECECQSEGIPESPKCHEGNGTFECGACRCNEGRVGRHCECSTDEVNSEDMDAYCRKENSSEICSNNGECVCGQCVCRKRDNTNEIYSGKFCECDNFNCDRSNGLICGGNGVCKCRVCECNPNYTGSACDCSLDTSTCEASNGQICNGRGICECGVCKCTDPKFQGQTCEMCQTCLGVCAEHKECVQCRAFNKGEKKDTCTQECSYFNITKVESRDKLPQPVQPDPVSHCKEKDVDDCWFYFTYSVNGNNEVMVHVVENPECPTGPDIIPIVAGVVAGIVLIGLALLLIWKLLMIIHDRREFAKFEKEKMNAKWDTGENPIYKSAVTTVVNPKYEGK

C[C@H](CCCOS(=O)(=O)O)[C@H]1CC[C@H]2[C@@H]3CC[C@@H]4C[C@H](O)CC[C@]4(C)[C@H]3CC[C@]12C
inhibition [1]: 100% | IC50 [2]: 16.7 µM | IC50 [3]: > 1 mM | Ratio IC50 [4]: > 60 | Activity (MDA-MB-231 [5]): Active | inhibition (MDA-MB-231 [6]): Active | inhibition (MDA-MB-231 [7]): Active | inhibition (MDA-MB-231 [8]): Active | inhibition (MDA-MB-231 [9]): inactive | Activity [10]: Dose-Dependent Effect | Activity [11]: Dose-Dependent Effect | Activity [12]: Dose-Dependent Effect | Activity [13]: Dose-Dependent Effect | Activity [14]: Dose-Dependent Effect | inhibition [15]: Active | inhibition [16]: Active | inhibition (Paxillin (Homo sapiens)): Active | inhibition [17]: Dose-Dependent Effect | Activity (MDA-MB-231 [18]): inactive | Activity (MDA-MB-231 [19]): inactive
